Measured values reported in US20230390235A1, “THERAPEUTIC AGENT FOR COVID-19” (priority 2020, published 2023).

Experiments:
[1] = system: SARS-CoV-2 S pseudotype virus N501Y mutant strain; format: cell-based
[2] = system: SARS-CoV-2 S pseudotype virus B.1.429 mutant strain (ε strain); format: cell-based; details: ε mutant strain (B.1.429); 100 μM; ACE2-expressing HEK293T cells; GFP fluorescence; FIG. 1

## COCCOCCOC(=O)N[C@@H](CC(C)C)C(=O)N[C@@H](Cc1ccccc1)C(=O)C(=O)NC1CC1 [SNJ-1945]
[1]
  entry inhibition of pseudotype virus into cells: inhibits entry
[2]
  entry inhibition of pseudotype virus into cells: inhibits entry
